# Assay results: patent US12545659B2, “IRAK degraders and uses thereof” (Kymera Therapeutics, Inc., priority 2019, dated 2026)
# Molecular target: T1, IRAK4 (Homo sapiens, UniProt Q9NWZ3)
# T1 construct: endogenous in cells; host or cells: OCI-LY10
# T1 sequence (Q9NWZ3 1-460): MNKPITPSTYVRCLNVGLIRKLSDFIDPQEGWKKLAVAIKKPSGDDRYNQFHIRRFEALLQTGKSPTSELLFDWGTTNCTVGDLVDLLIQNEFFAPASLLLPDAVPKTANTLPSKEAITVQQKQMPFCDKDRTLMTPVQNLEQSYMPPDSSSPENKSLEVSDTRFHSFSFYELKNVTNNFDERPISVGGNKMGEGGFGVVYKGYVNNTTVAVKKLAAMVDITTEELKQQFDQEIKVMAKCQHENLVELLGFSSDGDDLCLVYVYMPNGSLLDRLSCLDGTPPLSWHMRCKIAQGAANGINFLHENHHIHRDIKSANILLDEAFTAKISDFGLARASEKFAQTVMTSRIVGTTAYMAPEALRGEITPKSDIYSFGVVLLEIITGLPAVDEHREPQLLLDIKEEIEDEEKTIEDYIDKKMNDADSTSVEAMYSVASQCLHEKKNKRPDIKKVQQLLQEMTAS
# Assay: IRAK4 MSD Degradation in OCI-LY10
# Assay type: cell-based
# Details: OCI-LY10 cells, 4 hrs incubation, read-out: IRAK4 degradation in OCI-LY10 at 4 hrs: DC50
# How it was run: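 OCI-LY10 cells treated with 8-dose, 1:3 dilution series (top final 1 to 10 μM) for 4 to 24 h at 37 °C, 5% CO2. Lysate IRAK4 quantified by MSD sandwich immunoassay (mouse 2H9 capture, rabbit Y279 detection, SULFO-TAG anti-rabbit); DC50 from three-parameter logistic fit.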
row,Compound,DC50 [nM]
1,Cn1c(=O)n(C2CCC(=O)NC2=O)c2ccc(N3CCN(C[C@H]4CC[C@H](n5cc6cc(NC(=O)c7cccc(C(F)(F)F)n7)c(C(F)F)cc6n5)CC4)CC3)cc21 (stereo partly shown) [I-149],< 50
2,Cn1c(=O)n(C2CCC(=O)NC2=O)c2cccc(N3CCN(C[C@H]4CC[C@H](n5cc6cc(NC(=O)c7cccc(C(F)(F)F)n7)c(C(F)F)cc6n5)CC4)CC3)c21 (stereo partly shown) [I-176],< 50
3,Cn1c(=O)n(C2CCC(=O)NC2=O)c2cccc(NC3CC4(CCN(C[C@H]5CC[C@H](n6cc7cc(NC(=O)c8cccc(C(F)(F)F)n8)c(C(C)(C)O)cc7n6)CC5)CC4)C3)c21 (stereo partly shown) [I-153],< 50
4,Cn1c(=O)n(C2CCC(=O)NC2=O)c2cccc(OCC3CCN(C[C@H]4CC[C@H](n5cc6cc(NC(=O)c7cccc(C(F)(F)F)n7)c(C(C)(C)O)cc6n5)CC4)CC3)c21 (stereo partly shown) [I-132],< 50
5,CN(CC1CCN(c2cccc3c2C(=O)N(C2CCC(=O)NC2=O)C3=O)CC1)C[C@H]1CC[C@H](n2cc3cc(NC(=O)c4cccc(C(F)(F)F)n4)c(C(C)(C)O)cc3n2)CC1 (stereo partly shown) [I-40],50 to 100
6,Cn1c(=O)n(C2CCC(=O)NC2=O)c2cccc(CCC3CC4(CCN(C[C@H]5CC[C@H](n6cc7cc(NC(=O)c8ccccn8)c(C(C)(C)O)cc7n6)CC5)CC4)C3)c21 (stereo partly shown) [I-81],50 to 100
7,Cn1c(=O)n(C2CCC(=O)NC2=O)c2cccc(C#CCC3CCN(C[C@H]4CC[C@H](n5cc6cc(NC(=O)c7cccc(C(F)(F)F)n7)c(C(F)F)cc6n5)CC4)CC3)c21 (stereo partly shown) [I-95],50 to 100
8,Cc1cccc(C(=O)Nc2cc3cn([C@H]4CC[C@H](CN(C)C5CCN(Cc6cccc7c6n(C)c(=O)n7C6CCC(=O)NC6=O)CC5)CC4)nc3cc2C(C)(C)O)n1 (stereo partly shown) [I-48],< 50
9,Cn1c(=O)n(C2CCC(=O)NC2=O)c2cccc(C[C@H]3CC[C@H](N(C)C[C@H]4CC[C@H](n5cc6cc(NC(=O)c7cccc(C(F)(F)F)n7)c(C(F)F)cc6n5)CC4)CC3)c21 (stereo partly shown) [I-73],50 to 100

# The remaining lines, values ahead:
row,DC50 [nM],Compound
1,< 50,CN(C[C@H]1CC[C@H](n2cc3cc(NC(=O)c4cccc(C(F)(F)F)n4)c(C(C)(C)O)cc3n2)CC1)C1CCN(Cc2ccc3c(c2)C(=O)N(C)C3C2CCC(=O)NC2=O)CC1 (stereo partly shown) [I-279]
2,50 to 100,COc1cc2nn([C@H]3CC[C@H](CN4CCC5(CC4)CN(Cc4cccc6c4n(C)c(=O)n6C4CCC(=O)NC4=O)CCO5)CC3)cc2cc1NC(=O)c1cccc(C(F)(F)F)n1 (stereo partly shown) [I-289]
3,< 50,Cn1c(=O)n(C2CCC(=O)NC2=O)c2cccc(C3CCN(C[C@H]4CC[C@H](n5cc6cc(NC(=O)c7cccc(C(F)(F)F)n7)c(C(F)F)cc6n5)CC4)CC3)c21 (stereo partly shown) [I-263]
4,50 to 100,Cn1c(=O)n(C2CCC(=O)NC2=O)c2cccc(CCCC3CCN(C[C@H]4CC[C@H](n5cc6cc(NC(=O)c7cccc(C(F)(F)F)n7)c(C(F)F)cc6n5)CC4)CC3)c21 (stereo partly shown) [I-300]
5,50 to 100,Cn1c(=O)n(C2CCC(=O)NC2=O)c2cccc(CCC3CC4(CCN(C[C@H]5CC[C@H](n6cc7cc(NC(=O)c8cccc(OC(F)(F)F)n8)c(C(C)(C)O)cc7n6)CC5)CC4)C3)c21 (stereo partly shown) [I-204]
6,< 50,COc1cc2nn([C@H]3CC[C@H](CN4CCC(c5cccc6c5n(C)c(=O)n6C5CCC(=O)NC5=O)CC4)CC3)cc2cc1NC(=O)c1cccc(C(C)(C)O)n1 (stereo partly shown) [I-258]
7,< 50,Cn1c(=O)n(C2CCC(=O)NC2=O)c2cccc(CCOC3CCN(C[C@H]4CC[C@H](n5cc6cc(NC(=O)c7cccc(C(F)(F)F)n7)c(C(C)(C)O)cc6n5)CC4)CC3)c21 (stereo partly shown) [I-267]
8,50 to 100,COc1cc2nn([C@H]3CC[C@H](CN4CCC5(CC4)CC(CCc4cccc6c4n(C)c(=O)n6C4CCC(=O)NC4=O)C5)CC3)cc2cc1NC(=O)c1cccc(C(F)(F)F)n1 (stereo partly shown) [I-259]

# Same assay, conditions: OCI-LY10 cells, 24 hrs incubation, read-out: IRAK4 degradation in OCI-LY10 at 24 hrs: DC50
row,Compound,DC50 [nM]
1,CN(C[C@H]1CC[C@H](n2cc3cc(NC(=O)c4cccc(C(F)(F)F)n4)c(C(C)(C)O)cc3n2)CC1)[C@H]1CC[C@]2(CC1)C[C@H](Nc1cccc3c1C(=O)N(C1CCC(=O)NC1=O)C3=O)C2 (stereo partly shown) [I-124],< 50
2,"CC(C)(O)c1cc2nn([C@H]3CC[C@H](CN4CCC5(CC4)CC(Nc4cccc6c4C(=O)N(C4CCC(=O)NC4=O)C6=O)C5)CC3)cc2cc1NC(=O)c1cccc(C(F)(F)F)n1 (stereo partly shown) [I-35, N-[2-[4-[[2-[[2-(2,6-dioxo-3-piperidyl)-1,3-dioxo-isoindolin-4-yl]amino]-7-azaspiro [3.5]nonan-7-yl]methyl]cyclohexyl]-6-(1-hydroxy-1-methyl-ethyl)indazol-5-yl]-6-(trifluoromethyl)pyridine-2-carboxamide]",< 50
3,COc1cc2nn([C@H]3CC[C@H](CN4CCC5(CC4)CC(CCNc4cccc6c4C(=O)N(C4CCC(=O)NC4=O)C6=O)C5)CC3)cc2cc1NC(=O)c1cnn2cccnc12 (stereo partly shown) [I-139],< 50
4,CN(CCCOCCCNc1cccc2c1C(=O)N(C1CCC(=O)NC1=O)C2=O)C[C@H]1CC[C@H](n2cc3cc(NC(=O)c4cccc(C(F)(F)F)n4)c(C(C)(C)O)cc3n2)CC1 (stereo partly shown) [I-31],50 to 100
5,COc1cc2nc([C@H]3CC[C@H](CN4CCC5(CC4)CC(CCNc4cccc6c4C(=O)N(C4CCC(=O)NC4=O)C6=O)C5)CC3)oc2cc1NC(=O)c1cccc(C(F)(F)F)n1 (stereo partly shown) [I-137],100 to 500
6,CC(C)(O)COc1cc2nn([C@H]3CC[C@H](CN4CCC5(CC4)CC(CNc4cccc6c4C(=O)N(C4CCC(=O)NC4=O)C6=O)C5)CC3)cc2cc1NC(=O)c1cccc(C(F)(F)F)n1 (stereo partly shown) [I-138],50 to 100
7,Cc1cccc(C(=O)Nc2cc3cn([C@H]4CC[C@H](CN(C)[C@H]5CC[C@H](Nc6cccc7c6C(=O)N(C6CCC(=O)NC6=O)C7=O)CC5)CC4)nc3cc2C(C)(C)O)n1 (stereo partly shown) [I-47],< 50
8,O=C1CCC(N2C(=O)c3cccc(NCC4CC5(CCN(C[C@H]6CC[C@H](n7cc8cc(NC(=O)c9cccc(C(F)(F)F)n9)c(C(F)F)cc8n7)CC6)CC5)C4)c3C2=O)C(=O)N1 (stereo partly shown) [I-46],50 to 100
9,O=C1CCC(N2C(=O)c3cccc(NCCC4CC5(CCN(C[C@H]6CC[C@H](n7cc8cc(NC(=O)c9cccc(C(F)(F)F)n9)c(OC9CC9)cc8n7)CC6)CC5)C4)c3C2=O)C(=O)N1 (stereo partly shown) [I-159],< 50
10,COc1c(NC(=O)c2cccc(C(C)(F)F)n2)cc2cn([C@H]3CC[C@H](CN4CC5(CC(CCNc6cccc7c6C(=O)N(C6CCC(=O)NC6=O)C7=O)C5)C4)CC3)nc2c1C (stereo partly shown) [I-188],50 to 100
11,COc1cc2nn([C@H]3CC[C@H](CN4CCC5(CC4)CC(CCNc4cccc6c4C(=O)N(C4CCC(=O)NC4=O)C6=O)C5)CC3)cc2cc1NC(=O)c1cccc(C(C)(C)F)n1 (stereo partly shown) [I-92],50 to 100
12,COc1cc2nc([C@H]3CC[C@H](CN4CC5(CC(CCNc6cccc7c6C(=O)N(C6CCC(=O)NC6=O)C7=O)C5)C4)CC3)oc2cc1NC(=O)c1cccc(C(C)(F)F)n1 (stereo partly shown) [I-198],50 to 100
13,CC(C)(O)c1cc2nn([C@H]3CC[C@H](CN4CCC5(CC4)CC(Nc4cccc6c4C(=O)N(C4CCC(=O)NC4=O)C6=O)C5)CC3)cc2cc1NC(=O)c1cccc(S(F)(F)(F)(F)F)c1 (stereo partly shown) [I-123],50 to 100

# Further lines, results first:
row,DC50 [nM],Compound
1,50 to 100,COc1cc2nn([C@H]3CC[C@H](CN4CC5(CC(CNc6cccc7c6C(=O)N(C6CCC(=O)NC6=O)C7=O)C5)C4)CC3)cc2cc1NC(=O)c1cccc(C(F)(F)F)n1 (stereo partly shown) [I-274]
2,500 to 1000,"C[C@@]1(CN2CCC3(CC2)CC(CCNc2cccc4c2C(=O)N(C2CCC(=O)NC2=O)C4=O)C3)Cc2cc(NC(=O)c3cccc(C(F)(F)F)n3)c(N3CCOCC3)cc2O1 (stereo partly drawn) [I-319, N-((2S)-2-((2-(2-((2-(2,6-dioxopiperidin-3-yl)-1,3-dioxoisoindolin-4-yl)amino)ethyl)-7-azaspiro[3.5]nonan-7-yl)methyl)-2-methyl-6-morpholino-2,3-dihydrobenzofuran-5-yl)-6-(trifluoromethyl)picolinamide]"
3,50 to 100,CC(C)(O)c1cc2nn([C@H]3CC[C@H](CN4CCC5(CC4)CC(CNc4cccc6c4C(=O)N(C4CCC(=O)NC4=O)C6=O)C5)CC3)cc2cc1NC(=O)c1cccc(C(C)(C)F)n1 (stereo partly shown) [I-251]
4,50 to 100,CC(C)(O)c1cc2nn([C@H]3CC[C@H](CN4CCC(O[C@H]5C[C@H](Nc6cccc7c6C(=O)N(C6CCC(=O)NC6=O)C7=O)C5)CC4)CC3)cc2cc1NC(=O)c1cccc(C(C)(C)F)n1 (stereo partly shown) [I-234]
5,50 to 100,COc1cc2nn([C@H]3CC[C@H](CN4CCC(O[C@H]5C[C@H](Nc6cccc7c6C(=O)N(C6CCC(=O)NC6=O)C7=O)C5)CC4)CC3)cc2cc1NC(=O)c1cccc(C(C)(C)F)n1 (stereo partly shown) [I-305]
6,100 to 500,O=C1CCC(N2C(=O)c3ccc(NCC4CC5(C4)CN(C[C@H]4CC[C@H](n6cc7cc(NC(=O)c8cccc(S(F)(F)(F)(F)F)n8)c(N8CCCCC8)cc7n6)CC4)C5)cc3C2=O)C(=O)N1 (stereo partly shown) [I-297]
7,50 to 100,CC(C)(O)COc1cc2nn([C@H]3CC[C@H](CN4CC5(CC(CCNc6cccc7c6C(=O)N(C6CCC(=O)NC6=O)C7=O)C5)C4)CC3)cc2cc1NC(=O)c1cccc(C(C)(F)F)n1 (stereo partly shown) [I-296]
8,< 50,COc1cc2nn([C@H]3CC[C@H](CN4CCC5(CC4)CC(Nc4cccc6c4C(=O)N(C4CCC(=O)NC4=O)C6=O)C5)CC3)cc2cc1NC(=O)c1ccc(F)c(C)n1 (stereo partly shown) [I-224]
9,50 to 100,COc1cc2nn([C@H]3CC[C@H](CN(C)C4CCC5(CC4)CC(Nc4cccc6c4C(=O)N(C4CCC(=O)NC4=O)C6=O)C5)CC3)cc2cc1NC(=O)c1cccc(C(F)(F)F)n1 (stereo partly shown) [I-223]
10,50 to 100,COc1cc2nn([C@H]3CC[C@H](CN(C)[C@H]4CC[C@@]5(CC4)C[C@@H](CNc4cccc6c4C(=O)N(C4CCC(=O)NC4=O)C6=O)C5)CC3)cc2cc1NC(=O)c1cccc(C(F)(F)F)n1 (stereo partly shown) [I-317]
